In ChEMBL document CHEMBL5104161, “Novel analgesic/anti-inflammatory agents: 1,5-Diarylpyrrole nitrooxyethyl sulfides and related compounds as Cyclooxygenase-2 inhibitors containing a nitric oxide donor moiety endowed with vasorelaxant properties” (Eur J Med Chem, 2022):

Key:
[1] = molecular target: T1, Prostaglandin G/H synthase 1 (Mus musculus, UniProt P22437); experiment: Inhibition of COX1 in mouse J774 cells using arachidonic acid as substrate preincubated for 15 mins followed substrate addition and assessed as inhibition of PGE2 production after 30 mins by enzyme immuno-assay (EIA); assay type: cell-based
T1 sequence (P22437 whole entry): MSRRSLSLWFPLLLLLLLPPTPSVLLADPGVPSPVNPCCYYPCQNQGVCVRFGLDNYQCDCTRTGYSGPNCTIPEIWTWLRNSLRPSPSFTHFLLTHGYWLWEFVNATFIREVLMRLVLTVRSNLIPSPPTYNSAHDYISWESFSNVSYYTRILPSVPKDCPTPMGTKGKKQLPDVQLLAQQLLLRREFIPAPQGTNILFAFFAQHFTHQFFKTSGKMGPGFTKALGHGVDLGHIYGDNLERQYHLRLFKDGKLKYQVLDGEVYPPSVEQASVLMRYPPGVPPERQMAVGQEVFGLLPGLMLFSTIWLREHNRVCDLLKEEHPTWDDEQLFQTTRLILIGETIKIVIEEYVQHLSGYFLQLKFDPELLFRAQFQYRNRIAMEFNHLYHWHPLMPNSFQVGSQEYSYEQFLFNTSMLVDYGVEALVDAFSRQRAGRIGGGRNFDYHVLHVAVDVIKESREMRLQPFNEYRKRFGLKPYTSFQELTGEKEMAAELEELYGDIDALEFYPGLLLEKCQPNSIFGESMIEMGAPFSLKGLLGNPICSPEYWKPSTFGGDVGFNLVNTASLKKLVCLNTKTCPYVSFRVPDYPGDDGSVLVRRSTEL

[2] = molecular target: T2, Prostaglandin G/H synthase 2 (Mus musculus, UniProt Q05769); experiment: Inhibition of COX2 in LPS-stimulated mouse J774 cells assessed as inhibition of PGE2 production and measured after 24 hrs by enzyme immuno-assay (EIA); assay type: cell-based
T2 sequence (Q05769 whole entry): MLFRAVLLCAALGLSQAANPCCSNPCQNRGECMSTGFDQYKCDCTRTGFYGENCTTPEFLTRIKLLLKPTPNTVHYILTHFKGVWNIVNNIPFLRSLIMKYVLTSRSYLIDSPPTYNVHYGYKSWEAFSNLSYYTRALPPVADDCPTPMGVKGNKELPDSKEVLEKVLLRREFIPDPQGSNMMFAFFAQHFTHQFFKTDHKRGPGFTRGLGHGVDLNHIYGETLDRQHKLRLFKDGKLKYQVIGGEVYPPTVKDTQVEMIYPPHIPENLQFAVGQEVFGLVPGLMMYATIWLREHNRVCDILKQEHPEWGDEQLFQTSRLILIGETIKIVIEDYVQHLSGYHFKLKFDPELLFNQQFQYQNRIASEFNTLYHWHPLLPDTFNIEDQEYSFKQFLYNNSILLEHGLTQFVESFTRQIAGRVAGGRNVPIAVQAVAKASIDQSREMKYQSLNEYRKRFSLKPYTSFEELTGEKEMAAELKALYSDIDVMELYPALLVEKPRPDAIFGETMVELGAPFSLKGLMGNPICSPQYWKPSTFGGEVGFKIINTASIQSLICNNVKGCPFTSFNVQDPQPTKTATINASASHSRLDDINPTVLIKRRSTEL

J774 = experiment: Ratio IC50 for inhibition of COX1 in mouse J774 cells over inhibition of COX2 in mouse J774 cells; assay type: cell-based
[3] = Intrinsic clearance in human liver microsomes at 1 uM preincubated for 10 mins and measured up to 60 mins by LC-MS/MS analysis; assay type: ADME, Microsome; details: read-out: CLH
[4] = Half-life in human liver microsomes at 1 uM preincubated for 10 mins and measured up to 60 mins by LC-MS/MS analysis; assay type: ADME, Microsome
[5] = Intrinsic clearance in mouse liver microsomes at 1 uM preincubated for 10 mins and measured up to 60 mins by LC-MS/MS analysis; assay type: ADME, Microsome; details: read-out: CLH
[6] = Half-life in mouse liver microsomes at 1 uM preincubated for 10 mins and measured up to 60 mins by LC-MS/MS analysis; assay type: ADME, Microsome
Aorta = experiment: Vasorelaxant activity in Sprague-Dawley rat aortic rings assessed as reduction in L-phenylephrine-induced contractions at 0.01 to 100 uM relative to control; assay type: functional; details: dose 0.01-100 µM
Mus musculus [7] = experiment: Analgesic activity against acetic acid-induced male CD1 albino mouse model assessed as number of writhes at 10 mg/kg, po measured after 30 mins by abdominal constriction test; assay type: functional; details: 0.5 h
Mus musculus [8] = experiment: Analgesic activity against acetic acid-induced male CD1 albino mouse model assessed as number of writhes at 20 mg/kg, po measured after 30 mins by abdominal constriction test; assay type: functional; details: 0.5 h
Mus musculus [9] = experiment: Analgesic activity against acetic acid-induced male CD1 albino mouse model assessed as number of writhes at 30 mg/kg, po measured after 30 mins by abdominal constriction test; assay type: functional; details: 0.5 h
Rattus norvegicus [10] = experiment: Anti-hyperalgesic activity in carrageenan-induced hyperalgesia male Sprague-Dawley rat model assessed as paw withdrawal threshold at 20 mg/kg, po measured 15 mins after compound administration by paw pressure test; assay type: functional; details: 0.25 h
Rattus norvegicus [11] = experiment: Anti-hyperalgesic activity in carrageenan-induced hyperalgesia male Sprague-Dawley rat model assessed as paw withdrawal threshold at 20 mg/kg, po measured 30 mins after compound administration by paw pressure test; assay type: functional; details: 0.5 h
Rattus norvegicus [12] = experiment: Anti-hyperalgesic activity in carrageenan-induced hyperalgesia male Sprague-Dawley rat model assessed as paw withdrawal threshold at 20 mg/kg, po measured 45 mins after compound administration by paw pressure test; assay type: functional; details: 0.75 h
Rattus norvegicus [13] = experiment: Anti-hyperalgesic activity in carrageenan-induced hyperalgesia male Sprague-Dawley rat model assessed as paw withdrawal threshold at 20 mg/kg, po measured 60 mins after compound administration by paw pressure test; assay type: functional; details: 1 h
Rattus norvegicus [14] = experiment: Anti-hyperalgesic activity in carrageenan-induced hyperalgesia male Sprague-Dawley rat model assessed as paw edema volume at 20 mg/kg, po measured 30 mins after compound administration by plethysmometer analysis; assay type: functional; details: 0.5 h
Rattus norvegicus [15] = experiment: Anti-hyperalgesic activity in carrageenan-induced hyperalgesia male Sprague-Dawley rat model assessed as paw withdrawal threshold at 10 mg/kg, po measured 15 mins after compound administration by paw pressure test; assay type: functional; details: 0.25 h
Rattus norvegicus [16] = experiment: Anti-hyperalgesic activity in carrageenan-induced hyperalgesia male Sprague-Dawley rat model assessed as paw withdrawal threshold at 10 mg/kg, po measured 30 mins after compound administration by paw pressure test; assay type: functional; details: 0.5 h
Rattus norvegicus [17] = experiment: Anti-hyperalgesic activity in carrageenan-induced hyperalgesia male Sprague-Dawley rat model assessed as paw withdrawal threshold at 10 mg/kg, po measured 45 mins after compound administration by paw pressure test; assay type: functional; details: 0.75 h
Rattus norvegicus [18] = experiment: Anti-hyperalgesic activity in carrageenan-induced hyperalgesia male Sprague-Dawley rat model assessed as paw withdrawal threshold at 10 mg/kg, po measured 60 mins after compound administration by paw pressure test; assay type: functional; details: 1 h
Rattus norvegicus [19] = experiment: Anti-hyperalgesic activity in carrageenan-induced hyperalgesia male Sprague-Dawley rat model assessed as paw edema volume at 10 mg/kg, po measured 30 mins after compound administration by plethysmometer analysis; assay type: functional; details: 0.5 h

Row | SMILES | IC50 [1] | IC50 [2] | Ratio IC50 (J774) | Efficacy (Aorta) | Activity (Mus musculus [7]) | Activity (Mus musculus [8]) | Activity (Mus musculus [9]) | Activity (Rattus norvegicus [10]) | Activity (Rattus norvegicus [11]) | Activity (Rattus norvegicus [12]) | Activity (Rattus norvegicus [13]) | Activity (Rattus norvegicus [14]) | further results
1 | Cc1c(CCSCCO[N+](=O)[O-])cc(-c2ccc(S(C)(=O)=O)cc2)n1-c1ccc(F)cc1 | > 10000 nM | 9 nM | > 1110 | 59% | 24.2 | 20.5 | 20.6 | 39.9 g | 45.9 g | 44.7 g | 37.5 g | 2.18 mL | microsomal CLint at 1 µM [3]: 132 µL/min/mg; half-life at 1 µM [4]: 10.5 min; microsomal CLint at 1 µM [5]: 61.2 µL/min/mg; half-life at 1 µM [6]: 22.8 min
2 | Cc1c(CC[S+]([O-])CCO)cc(-c2ccc(S(C)(=O)=O)cc2)n1-c1ccccc1 (centres undefined) | > 10000 nM | 320 nM | > 31.2 | – | – | – | – | – | – | – | – | – | –
3 | Cc1c(CCSCCO)cc(-c2ccc(S(C)(=O)=O)cc2)n1-c1ccccc1 | > 10000 nM | 25 nM | > 400 | – | – | – | – | – | – | – | – | – | –
4 | Cc1c(CCSCCO[N+](=O)[O-])cc(-c2ccc(S(C)(=O)=O)cc2)n1-c1ccccc1 | > 10000 nM | 29 nM | > 345 | 59% | – | – | – | – | – | – | – | – | –
5 | Cc1c(CCOCCO)cc(-c2ccc(S(C)(=O)=O)cc2)n1-c1ccc(F)c(F)c1 | – | – | > 23.8 | – | – | – | – | – | – | – | – | – | –
6 | Cc1c(CC[S+]([O-])CCO)cc(-c2ccc(S(C)(=O)=O)cc2)n1-c1ccc(F)cc1 (centres undefined) | > 10000 nM | 916 nM | > 11 | – | – | – | – | – | – | – | – | – | microsomal CLint at 1 µM [3]: 3.2 µL/min/mg; half-life at 1 µM [4]: 470 min; microsomal CLint at 1 µM [5]: 9.7 µL/min/mg; half-life at 1 µM [6]: 142 min
7 | Cc1c(CCSCCO[N+](=O)[O-])cc(-c2ccc(S(C)(=O)=O)cc2)n1-c1ccc(F)c(F)c1 | > 10000 nM | 16 nM | > 625 | 59% | 22.5 | 19 | 20.7 | 40.6 g | 46.1 g | 45.7 g | 37.1 g | 2.31 mL | –
8 | Cc1ccc(-c2cc(C(F)(F)F)nn2-c2ccc(S(N)(=O)=O)cc2)cc1 [CELECOXIB] | – | – | – | – | – | – | – | – | – | – | – | – | Activity (Rattus norvegicus [15]): 48.5 g; Activity (Rattus norvegicus [16]): 51.3 g; Activity (Rattus norvegicus [17]): 54 g; Activity (Rattus norvegicus [18]): 46.7 g; Activity (Rattus norvegicus [19]): 1.56 mL
9 | Cc1c(CC[S+]([O-])CCO[N+](=O)[O-])cc(-c2ccc(S(C)(=O)=O)cc2)n1-c1ccc(F)cc1 (centres undefined) | > 10000 nM | 5 nM | > 2000 | – | 29.2 | 21.8 | 18 | 42.3 g | 47.2 g | 46.1 g | 36.3 g | 2.25 mL | microsomal CLint at 1 µM [3]: 39.9 µL/min/mg; half-life at 1 µM [4]: 34.7 min; microsomal CLint at 1 µM [5]: 40.3 µL/min/mg; half-life at 1 µM [6]: 35.1 min
10 | Cc1c(CCOCCO[N+](=O)[O-])cc(-c2ccc(S(C)(=O)=O)cc2)n1-c1ccc(F)cc1 | – | – | > 714 | 59% | – | – | – | – | – | – | – | – | –
11 | CCOc1ccc2ccc(=O)oc2c1 | – | – | – | – | – | – | – | – | – | – | – | – | microsomal CLint at 1 µM [3]: 113 µL/min/mg; half-life at 1 µM [4]: 12.6 min; microsomal CLint at 1 µM [5]: 297 µL/min/mg; half-life at 1 µM [6]: 4.7 min
12 | Cc1c(CCSCCO)cc(-c2ccc(S(C)(=O)=O)cc2)n1-c1ccc(F)cc1 | > 10000 nM | 8 nM | > 1250 | – | 26.5 | 23.1 | 21.5 | 41.5 g | 48.2 g | 48.7 g | 38.2 g | 2.22 mL | microsomal CLint at 1 µM [3]: 39.2 µL/min/mg; half-life at 1 µM [4]: 36.2 min; microsomal CLint at 1 µM [5]: 73.2 µL/min/mg; half-life at 1 µM [6]: 19.2 min
13 | Cc1c(CCOCCO[N+](=O)[O-])cc(-c2ccc(S(C)(=O)=O)cc2)n1-c1ccc(F)c(F)c1 | – | – | > 10.9 | – | – | – | – | – | – | – | – | – | –
14 | Cc1c(CC[S+]([O-])CCO)cc(-c2ccc(S(C)(=O)=O)cc2)n1-c1ccc(F)c(F)c1 (centres undefined) | > 10000 nM | 140 nM | > 71.4 | – | – | – | – | – | – | – | – | – | –
15 | Cc1c(CC[S+]([O-])CCO[N+](=O)[O-])cc(-c2ccc(S(C)(=O)=O)cc2)n1-c1ccccc1 (centres undefined) | > 10000 nM | 74 nM | > 135 | 59% | – | – | – | – | – | – | – | – | –
16 | Cc1c(CCOCCO[N+](=O)[O-])cc(-c2ccc(S(C)(=O)=O)cc2)n1-c1ccccc1 | – | – | > 588 | – | – | – | – | – | – | – | – | – | –
17 | Cc1c(CC[S+]([O-])CCO[N+](=O)[O-])cc(-c2ccc(S(C)(=O)=O)cc2)n1-c1ccc(F)c(F)c1 (centres undefined) | > 10000 nM | 3 nM | > 3330 | 59% | 25.9 | 20.1 | 21.3 | 39.8 g | 48.2 g | 44.2 g | 38.3 g | 2.2 mL | –
18 | Cc1c(CCSCCO)cc(-c2ccc(S(C)(=O)=O)cc2)n1-c1ccc(F)c(F)c1 | > 10000 nM | 17 nM | > 588 | – | 23.8 | 19.6 | 17.4 | 37.8 g | 46.6 g | 45.3 g | 39.6 g | 2.09 mL | –
